Measured values published in patent publication US9505735B2, “Compounds for treating infectious diseases” (Whitehead Institute for Biomedical Research, priority 2012, dated 2016).

Key:
Gas1 and CPY maturation = assay: Protein trafficking analysis (immunoblot of reporter proteins); format: cell-based, S. cerevisiae; conditions: 10 μM, 1 hour
Procedure: (A) Immunoblots of lysates prepared from S. cerevisiae treated with gepinacin showing GPI-anchor-selective impairment of protein maturation. The unprocessed (u), precursor (p), and mature (m) forms of the reporter proteins are indicated. The identity of the tagged reporter proteins (top of panel) and the antibodies used for their detection (bottom of panel) are also indicated. Treatment conditions are DMSO (0.05%), gepinacin (GPN, 10 μM) or tunicamycin (Tun, 10 μM). The same lysate was used for both blots. […] GFP expression was monitored by flow cytometry. (C) Anti-fungal susceptibility testing of strains deleted for IRE1 (activator of the UPR) or HAC1 (effector of the UPR) showing their increased sensitivity to gepinacin.
HA-tagged GAS1 was expressed in strain BY4741 CPY-GFP (Yeast GFP collection (Huh, et al. (2003) Nature 425, 686-691) under control of its own promoter using plasmid pCM-HA-GAS1. This construct was created as previously reported except in a gateway plasmid backbone (Fujita, et al. (2006) Mol Biol Cell 17, 834-850). To assess effects on trafficking, strains were incubated for 1 hour at 30° C. with test compounds. Total cellular protein (5 μg) was separated by electrophoresis (Invitrogen 8% gels) and transferred to nitrocellulose membranes. Blots were hybridized with antibodies against HA (Covance), GFP (Roche), or CPY (Invitrogen). Sizes for the various post-translationally modified products of Gas1HA2 and CPY have been previously reported (Fujita, et al. (2006) Mol Biol Cell 17, 834-850). CPY-GFP was used to facilitate discrimination of CPY processing steps because GFP is cleaved from CPY in the yeast vacuole. The experiment, however, was also performed with untagged CPY with the same results.

BIP level in K562 cells = assay: BIP immunoblot in mammalian cells; format: cell-based, human; conditions: 20 μM, 28 hour
Procedure: Immunoblot of lysates prepared from human leukemia cells (K562) using an antibody to BIP after 28 hour exposure to tunicamycin (1 μg ml^−1), gepinacin (20 μM) or solvent vehicle (DMSO, 0.1%). Betaactin was blotted as a loading control.

PIG-W = biological target: T1, PIG-W (Homo sapiens, UniProt Q7Z7B1); assay: In vitro acylation assay with membranes of the PIG-W strain; format: biochemical; conditions: membranes of low copy plasmid strain
T1 construct: expressed in transfected cells; host or cells: S. cerevisiae BY4741-derived gwt1 deletion shuttle strain carrying a pAG415GPD-based PIG-W plasmid
T1 sequence (Q7Z7B1 1-504): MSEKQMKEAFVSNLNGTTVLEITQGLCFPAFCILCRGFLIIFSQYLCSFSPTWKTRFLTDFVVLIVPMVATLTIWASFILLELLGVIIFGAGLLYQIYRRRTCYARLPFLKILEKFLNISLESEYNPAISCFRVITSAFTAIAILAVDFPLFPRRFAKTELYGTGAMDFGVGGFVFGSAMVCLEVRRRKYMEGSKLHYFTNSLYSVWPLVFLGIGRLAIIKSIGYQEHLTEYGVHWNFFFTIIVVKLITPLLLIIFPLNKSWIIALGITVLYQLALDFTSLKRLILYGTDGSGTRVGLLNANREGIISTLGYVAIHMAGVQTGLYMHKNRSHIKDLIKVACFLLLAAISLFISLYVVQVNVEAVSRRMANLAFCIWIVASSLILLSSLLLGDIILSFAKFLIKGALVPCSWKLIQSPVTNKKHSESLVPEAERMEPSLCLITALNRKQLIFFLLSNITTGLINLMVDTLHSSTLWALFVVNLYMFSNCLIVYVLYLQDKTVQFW
Procedure: Photographs were taken after 24 hours. DMSO-treated cultures have large, dense colonies of C. albicans which are not present in gepinacin-treated cultures. (B) Anti-fungal susceptibility testing of S. cerevisiae strains in which the endogenous GWT1 gene had been replaced by plasmid-driven expression of the human gene (PIG-W), or the fungal gene (GWT1). CEN plasmids are low copy, […] plasmids are high copy.
Experiments were performed using a previously published protocol (Umemara, et al. (2003) J Biol Chem 278, 23639-23647) with the following modifications; UDP[^3H]GlcNAc was used instead of [^14C] and TLC plates were imaged by autoradiography. Lipid extracts were treated overnight with phosphatidylinositol-specific phospholipase C to confirm that the band identified as GlcN-(acyl)PI was resistant to cleavage (data not shown).

SMILES: COc1ccc(NC(=O)COc2cccc(OCC(C)C)c2)cc1 [gepinacin]
- CPY (not GPI-anchored) processing (Gas1 and CPY maturation): identical
- Gas1 (GPI-anchored) maturation: mature versus precursor form (Gas1 and CPY maturation): inverted
- ER function monitored by induction of BIP (BIP level in K562 cells): did not perturb ER function
- activity of the human enzyme (GlcN-(acyl)PI formation) (PIG-W): not inhibited
